According to patent publication EP1345943B1, “INHIBITORS OF PAPILLOMA VIRUS” (BOEHRINGER INGELHEIM (CANADA) LTD., priority 2000, dated 2002):

What follows are compounds tested against E1-E2-DNA complex (Human papillomavirus 11, UniProt P04015) (assay: E2-dependent E1 DNA binding assay (E1-E2 DNA assay)). Conditions: E1-E2 DNA assay of Example 11, HPV-11.
Description: This particular assay determines the ability of a test compound to inhibit the activity (IC50) of HPV-11 DNA replication. More specifically, in the assay described herein, the inhibitory activity of the test compound is evaluated based on its ability to interfere with the E1-E2-DNA origin of replication interaction, thereby inhibiting initiation of viral DNA replication.
This assay was modeled on a similar assay for SV40 T Antigen described by McKay (J. Mol. Biol., 1981,145:471). A 400bp radiolabeled DNA probe, containing the -HPV-11 origin of replication (Chiang et al.., 1992, Proc. Natl.-Acad. Sci. USA 89:5799) was produced by pcr, using plasmid pBluescript™ SK encoding the origin (nucleotides 7886-61 of the HPV-11 genome in unique BAMH1 site) as template and primers flanking the origin. Radiolabel was incorporated as [33p]dCTP. Binding assay buffer consisted of: 20 mM Tris pH 7.6, 100 mM NaCI, 1 mM DTT, 1 mM EDTA.
Other reagents used were protein A-SPA beads (type II, Amersham) and K72 rabbit polyclonal antiserum, raised against a peptide corresponding to the C-terminal 14 amino acids of HPV-11 E1. Following the protocol from Amersham, one bottle of beads was mixed with 25 mL of binding assay buffer. For the assay, a saturating amount of K72 antiserum was added to the beads and the mixture was incubated for 1 h, washed with one volume of binding assay buffer, and then resuspended in the same volume of fresh binding assay buffer. Binding reactions contained 8 ng of E2, approximately 100-200 ng of purified E1, and 0.4 ng of radiolabeled probe in a total of 80 µL of binding assay buffer. After 1 h at room temperature, 25 µL of K72 antibody-SPA bead suspension was added to with the binding reaction and mixed. After an additional hour of incubation at room temperature, the reactions were centrifuged briefly to pellet the beads and the extent of complex formation was determined by scintillation counting on a Packard TopCount™. Typically, the signal for reactions containing E1 and E2 was 20-30 fold higher than the background observed when either E1, E2, or both was omitted.

Sequence of E1-E2-DNA complex (P04015 whole entry, one chain of several): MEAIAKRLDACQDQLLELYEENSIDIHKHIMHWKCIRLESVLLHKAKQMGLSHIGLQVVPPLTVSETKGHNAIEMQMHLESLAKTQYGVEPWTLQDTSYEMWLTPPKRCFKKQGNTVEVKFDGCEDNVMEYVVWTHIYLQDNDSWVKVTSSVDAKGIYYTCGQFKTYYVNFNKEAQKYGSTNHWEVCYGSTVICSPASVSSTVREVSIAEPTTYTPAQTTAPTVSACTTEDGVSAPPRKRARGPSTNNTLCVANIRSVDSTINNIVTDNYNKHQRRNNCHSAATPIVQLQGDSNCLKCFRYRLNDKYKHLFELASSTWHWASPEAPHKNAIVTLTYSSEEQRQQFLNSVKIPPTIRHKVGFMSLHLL

SMILES | IC50 [µM]
COC(=O)C1C(C(=O)Nc2ccc3c(c2)OCO3)C(c2ccc(Cl)c(Cl)c2)OC12C(=O)c1ccccc1C2=O (racemic) [Compound 1022] | 0.5 to 5
COc1cccc(C2OC3(C(=O)c4ccccc4C3=O)C(C(=O)O)C2C(=O)Nc2ccc3c(c2)OCO3)c1 (racemic) [Compound 1023] | 5 to 50
CC(=O)c1ccc(NC(=O)C2C(c3ccc(Br)c(Br)c3)OC3(C(=O)c4ccccc4C3=O)C2C(=O)O)cc1 (racemic) [Compound 1027] | < 0.5
CC(=O)c1ccc(NC(=O)C2C(c3ccc(Cl)c(Cl)c3)OC3(C(=O)c4ccccc4C3=O)C2C(=O)O)cc1 (racemic) [Compound 1047] | 0.5 to 5
Cc1ccc(NC(=O)C2C(c3ccc(Br)c(Br)c3)OC3(C(=O)c4ccccc4C3=O)C2C(=O)O)cc1 (racemic) [Compound 1072] | < 0.5
O=C(Nc1ccccc1)C1C(c2ccc(Br)c(Br)c2)OC2(C(=O)c3ccccc3C2=O)C1C(=O)O (racemic) [Compound 1074] | < 0.5
O=C(NN1CCOCC1)C1C(c2ccc(Br)c(Br)c2)OC2(C(=O)c3ccccc3C2=O)C1C(=O)O (racemic) [Compound 1075] | 0.5 to 5
O=C(Nc1ccc(-c2csnn2)cc1)C1C(c2ccc(Br)c(Br)c2)OC2(C(=O)c3ccccc3C2=O)C1C(=O)O (racemic) [Compound 1076] | < 0.5
O=C(NCCc1ccccc1)C1C(c2ccc(Cl)c(Cl)c2)OC2(C(=O)c3ccccc3C2=O)C1C(=O)O (racemic) [Compound 1077] | < 0.5
O=C(Nc1ccc(N2CCOCC2)cc1)C1C(c2ccc(Br)c(Br)c2)OC2(C(=O)c3ccccc3C2=O)C1C(=O)O (racemic) [Compound 1078] | < 0.5
O=C(Nc1ccc(Br)c(Cl)c1)C1C(c2ccc(Br)c(Br)c2)OC2(C(=O)c3ccccc3C2=O)C1C(=O)O (racemic) [Compound 1102] | 0.5 to 5
O=C1C2C(c3ccc(Cl)c(Cl)c3)OC3(C(=O)c4ccccc4C3=O)C2C(=O)N1c1ccc2c(c1)OCO2 (racemic) [Compound 2013] | 0.5 to 5
CC(=O)c1ccc(N2C(=O)C3C(c4ccc(Cl)c(Cl)c4)OC4(C(=O)c5ccccc5C4=O)C3C2=O)cc1 (racemic) [Compound 2016] | 0.5 to 5
O=C(Nc1ccc2c(c1)OCO2)C1C(c2cc(Cl)cc(Cl)c2)OC23C(=O)c4ccccc4C2(O)OC(=O)C13 (racemic) [Compound 3001] | 0.5 to 5
O=C(NC1CCCCC1)C1C(c2ccc(Cl)cc2)OC23C(=O)c4ccccc4C2(O)OC(=O)C13 (racemic) [Compound 3002] | 5 to 50
O=C(NCc1ccccc1)C1C(c2ccc(Cl)cc2)OC23C(=O)c4ccccc4C2(O)OC(=O)C13 (racemic) [Compound 3003] | 5 to 50
O=C(Nc1ccc2c(c1)OCO2)C1C(c2ccc(Cl)cc2)OC23C(=O)c4ccccc4C2(O)OC(=O)C13 (racemic) [Compound 3005] | 5 to 50
O=C(Nc1ccccc1Cl)C1C(c2ccc(Cl)cc2)OC23C(=O)c4ccccc4C2(O)OC(=O)C13 (racemic) [Compound 3006] | 5 to 50
CC(NC(=O)C1C(c2ccc(Cl)c(Cl)c2)OC23C(=O)c4ccccc4C2(O)OC(=O)C13)c1ccccc1 (racemic) [Compound 3007] | 5 to 50
[N-]=[N+]=Nc1c(F)c(F)c(CNC(=O)C2C(c3ccc(Cl)c(Cl)c3)OC34C(=O)c5ccccc5C3(O)OC(=O)C24)c(F)c1F (racemic) [Compound 3008] | 5 to 50

SMILES | IC50 [µM]
CC(=O)c1ccc(NC(=O)C2C(c3ccc(Cl)c(Cl)c3)OC34C(=O)c5ccccc5C3(O)OC(=O)C24)cc1 (racemic) [Compound 3009] | < 0.5
O=C(NCc1ccccc1)C1C(c2ccc(Cl)c(Cl)c2)OC23C(=O)c4ccccc4C2(O)OC(=O)C13 (racemic) [Compound 3011] | 0.5 to 5
CC(=O)c1ccc(NC(=O)C2C(C=C(C)c3ccccc3)OC3(C(=O)c4ccccc4C3=O)C2C(=O)O)cc1 (racemic) [Compound 4008] | 5 to 50
CC(=O)c1ccc(NC(=O)C2C(C(C)=Cc3ccccc3)OC3(C(=O)c4ccccc4C3=O)C2C(=O)O)cc1 (racemic) [Compound 4009] | 5 to 50
CC(=O)c1ccc(NC(=O)C2C(C(Br)=Cc3ccccc3)OC3(C(=O)c4ccccc4C3=O)C2C(=O)O)cc1 (racemic) [Compound 4012] | 5 to 50
O=C(Nc1ccc2c(c1)OCO2)C1C(c2ccc(Cl)c(Cl)c2)OC2(C(=O)c3ccccc3C2=O)C1C(=O)O (racemic) [Compound 5001] | 0.5 to 5
COC(=O)C1C(C(=O)Nc2ccc3c(c2)OCO3)C(c2ccc(Cl)c(Cl)c2)OC12C(=O)c1ccccc1C21CO1 (racemic) [Compound 7001] | 5 to 50
O=C1C2C(c3ccc(Cl)c(Cl)c3)OC3(C(=O)c4ccccc4C3O)C2C(=O)N1c1ccc2c(c1)OCO2 (racemic) [Compound 9001] | 5 to 50
O=C(NC1CC1c1ccccc1)C1C(c2ccc(Br)c(Br)c2)OC2(C(=O)c3ccccc3C2=O)C1C(=O)O (single isomer, unassigned) [Compound 1088] | 0.5 to 5
O=C(NC1CC1c1ccccc1)C1C(c2ccc(Br)c(Br)c2)OC2(C(=O)c3ccccc3C2=O)C1C(=O)O (single isomer, unassigned) [Compound 1089] | < 0.5
O=C(Nc1ccc(-c2csnn2)cc1)C1C(c2ccc(Br)c(Br)c2)OC2(C(=O)c3ccccc3C2=O)C1C(=O)O (single isomer, unassigned) [Compound A1001] | 5 to 50
O=C(Nc1ccc(-c2csnn2)cc1)C1C(c2ccc(Br)c(Br)c2)OC2(C(=O)c3ccccc3C2=O)C1C(=O)O (single isomer, unassigned) [Compound A1002] | < 0.5
Cc1ccc2c(c1)C(=O)C1(OC(c3ccc(Cl)c(Cl)c3)C(C(=O)Nc3ccc4c(c3)OCO4)C1C(=O)O)C2=O (single isomer, unassigned) [Compound A1003] | 5 to 50
Cc1ccc2c(c1)C(=O)C1(OC(c3ccc(Cl)c(Cl)c3)C(C(=O)Nc3ccc4c(c3)OCO4)C1C(=O)O)C2=O (single isomer, unassigned) [Compound A1004] | 5 to 50
Cc1ccc2c(c1)C(=O)C1(OC(c3ccc(Cl)c(Cl)c3)C(C(=O)Nc3ccc4c(c3)OCO4)C1C(=O)O)C2=O (single isomer, unassigned) [Compound A1005] | < 0.5
Cc1ccc2c(c1)C(=O)C1(OC(c3ccc(Br)c(Br)c3)C(C(=O)Nc3ccc(-c4csnn4)cc3)C1C(=O)O)C2=O (single isomer, unassigned) [Compound A1010] | 0.5 to 5
Cc1ccc2c(c1)C(=O)C1(OC(c3ccc(Br)c(Br)c3)C(C(=O)Nc3ccc(-c4csnn4)cc3)C1C(=O)O)C2=O (single isomer, unassigned) [Compound A1011] | < 0.5
O=C(Nc1ccc(N2CCOCC2)cc1)C1C(c2ccc(Br)c(Br)c2)OC2(C(=O)c3ccccc3C2=O)C1C(=O)O (single isomer, unassigned) [Compound A1012] | 5 to 50
O=C(Nc1ccc(N2CCOCC2)cc1)C1C(c2ccc(Br)c(Br)c2)OC2(C(=O)c3ccccc3C2=O)C1C(=O)O (single isomer, unassigned) [Compound A1013] | < 0.5
Cc1ccc2c(c1)C(=O)C1(OC(c3ccc(Br)c(Br)c3)C(C(=O)Nc3ccc(N4CCOCC4)cc3)C1C(=O)O)C2=O (single isomer, unassigned) [Compound A1014] | < 0.5
